# Assay results published in patent publication US8436028B2, “CETP inhibitors derived from benzoxazole arylamides” (Merck Sharp & Dohme Corp, priority 2007, dated 2013).
# Target: T1, recombinant human CETP (Homo sapiens, UniProt P11597)
# T1 construct: made in house; host or cells: CHO cells
# T1 sequence (P11597 18-493): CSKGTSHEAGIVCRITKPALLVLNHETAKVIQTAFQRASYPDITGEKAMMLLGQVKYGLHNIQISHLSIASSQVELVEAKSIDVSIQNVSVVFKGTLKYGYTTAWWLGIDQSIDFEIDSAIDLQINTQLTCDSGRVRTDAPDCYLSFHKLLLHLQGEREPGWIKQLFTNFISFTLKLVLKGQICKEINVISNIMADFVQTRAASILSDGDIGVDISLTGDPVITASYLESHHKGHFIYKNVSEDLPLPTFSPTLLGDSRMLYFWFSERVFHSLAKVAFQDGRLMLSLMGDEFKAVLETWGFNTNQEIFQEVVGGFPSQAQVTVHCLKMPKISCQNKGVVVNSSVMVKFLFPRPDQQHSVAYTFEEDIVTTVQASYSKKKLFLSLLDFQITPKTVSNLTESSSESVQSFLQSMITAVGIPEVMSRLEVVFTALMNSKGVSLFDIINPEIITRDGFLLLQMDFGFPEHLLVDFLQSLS
# Assay: CETP assay, CE transfer reaction (BODIPY-CE fluorescence, continuous)
# Assay type: biochemical
# Conditions: 3% human serum, 25° C., read-out: IC50 value as measured for the CE transfer reaction
# Protocol: An in vitro continuous assay for determining IC50's to identify compounds that are CETP inhibitors was performed based on a modification of the method described by Epps et al. employing BODIPY®-CE as the cholesteryl ester lipid donor and BODIPY®-TG as the triglyceride lipid donor. See Epps et al. (1995) Method for measuring the activities of cholesteryl ester transfer protein (lipid transfer protein), Chem. Phys. Lipids. 77, 51-63.
# Particles used in the assay were created from the following materials by probe sonication essentially as described by Epps et al. Synthetic cholesteryl ester (CE) donor HDL particles contained DOPC (Dioleoyl Phosphatidyl Choline), BODIPY®-CE (Molecular Probes C-3927), triolein (a triglyceride), dabcyl dicetylamide, (a non-diffusable quencher molecule to reduce background fluorescence) and apoHDL. Synthetic triglyceride (TG) donor HDL particles contained DOPC, BODIPY®-TG, and apoHDL. BODIPY®-TG was synthesized at room temperature from diolein and the BODIPY containing fatty acid analog 4,4-difluoro-5-(2-thienyl)-4-bora-3a,4a-diaza-s-indacene-3-dodecanoic acid (Molecular Probes) in methylene chloride in the presence of dicyclohexyl carbodimide. Dabcyl dicetylamide was made by heating dabcyl n-succinimide with dicetylamine in DMF at 95° C. overnight in the presence of diisopropylamine catalyst. Native lipoproteins from human blood were used as acceptor particles. Particles having a density less than 1.063 g/ml were collected by ultracentrifugation. These particles include VLDL, IDL, and LDL. Particle concentrations were expressed in terms of protein concentration as determined by BCA assay (Pierce, USA). Particles were stored at 4° C. until use.
# Assays were performed in Dynex Microfluor 2 U-bottom black 96-well plates (Cat #7205). An assay cocktail containing CETP, 1×CETP buffer (50 mM Tris, pH 7.4, 100 mM NaCl, 1 mM EDTA), 3% human serum, and half the final concentration of acceptor particles was prepared, and 100 μL of the assay cocktail was added to each well of the plate. Test compounds in DMSO were added in a volume of […]. The plate was mixed on a plate shaker and then incubated at 25° C. for 1 hour. A second assay cocktail containing donor particles, the remaining acceptor particles and 1×CETP buffer was prepared. 47 μL of the second assay cocktail was added to the reaction wells to start the assay. Assays were performed in a final volume of 150 μL. CE transfer reactions were performed as follows: final concentrations of materials were: 2.5 ng/μL CE donor particles, 7.5 ng/μL acceptor particles (each expressed by protein content), 1×CETP buffer, 14-30 nM recombinant human CETP (expressed in CHO cells and partially purified), and up to 2% DMSO when testing compounds; reactions were followed in a fluorescence plate reader (Molecular Devices Spectramax GeminiXS) set for a 45 minute kinetic run at 25° C. which read the samples every 45 sec at Ex=480 nm, Em=511 nm, with a cutoff filter at 495 nm, photomultiplier tube setting of medium, calibration on, and 6 reads/well. TG transfer reactions were performed as described above with the exception that 2.5 ng/uL TG donor particles were used. TG transfer was measured at an excitation wavelength of 538 nm while reading emission at 568 nm every 45 sec for 45 min at 37° C. with a cutoff filter at 550 nm.
# Data were evaluated by obtaining an initial rate, expressed in relative fluorescence units per second, for the pseudolinear portion of the curve, often 0-500 or 1000 sec. Comparison of the rates of samples with inhibitors to an uninhibited (DMSO only) positive control yielded a percent inhibition. A plot of percent inhibition vs. log of inhibitor concentration, fit to a Sigmoidal 4 parameter equation was used to calculate […].
row,SMILES,IC50 [nM]
1,CC(C)c1cc(C#N)cc2nc(-c3ccc(C(=O)NC[C@H]4CC[C@H](c5ccc(C(C)(C)C)cc5)CC4)cc3)oc12 [Example 65],12 to 41
2,"CC(C)c1cc(C#N)cc2nc(-c3ccc(C(=O)NCC4CC=C(Cc5ccc(C(F)(F)F)cc5)CC4)cc3)oc12 (stereo not shown) [Example 47, 4-(5-Cyano-7-isopropyl-1,3-benzoxazol-2-yl)-N-({4-[4-(trifluoromethyl)benzyl]cyclohex-3-en-1-yl}methyl)benzamide]",12 to 41
3,CC(C)c1cc(C#N)cc2nc(-c3ccc(C(=O)NC[C@H]4CC[C@H](c5ccc(C(F)(F)F)cc5)CC4)cc3)oc12 [Example 53],12 to 41
4,CC(C)c1cc(C#N)cc2nc(-c3ccc(C(=O)NCC4(c5ccccc5)CCCCC4)cc3)oc12 [Example 48],12 to 41
5,CC(C)c1cc(C#N)cc2nc(-c3ccc(C(=O)NC[C@H]4CC[C@@H](c5ccc(C(C)(C)C)cc5)CC4)cc3)oc12 [Example 64],12 to 41

# The next lines start with the values.
row,IC50 [nM],SMILES
1,12 to 41,"CC(C)c1cc(C#N)cc2nc(-c3ccc(C(=O)NC[C@H]4CC[C@H](CC(=O)Nc5cc(C(F)(F)F)ccn5)CC4)cc3)oc12 [Example 44, 4-(5-Cyano-7-isopropyl-1,3-benzoxazol-2-yl)-N-{[trans-4-(2-oxo-2-{[4-(trifluoromethyl)pyridin-2-yl]amino}ethyl)cyclohexyl]methyl}benzamide]"
2,12 to 41,"CC(C)c1cc(C#N)cc2nc(-c3ccc(C(=O)NC[C@H]4CC[C@H](CCOC(C)(C(F)(F)F)C(F)(F)F)CC4)cc3)oc12 [Example 45, 4-(5-Cyano-7-isopropyl-1,3-benzoxazol-2-yl)-N-[(trans-4-{2-[2,2,2-trifluoro-1-methyl-1-(trifluoromethyl)ethoxy]ethyl}cyclohexyl)methyl]benzamide]"
3,12 to 41,Cc1ccc2c(c1)cc(C1=CCC(CNC(=O)c3ccc(-c4nc5cc(C#N)cc(C(C)C)c5o4)cc3)CC1)n2C(=O)OC(C)(C)C (stereo not shown) [Example 76]
4,12 to 41,CC(C)c1cc(C#N)cc2nc(-c3ccc(C(=O)NC[C@H]4CC[C@H](c5cc6ccccc6n5C)CC4)cc3)oc12 [Example 81]
5,12 to 41,CC(C)c1cc(C#N)cc2nc(-c3ccc(C(=O)NC[C@H]4CC[C@H](c5cc6ccccc6o5)CC4)cc3)oc12 [Example 82]
